For the test, the target named is Receptor-type tyrosine-protein kinase FLT3 (Homo sapiens) (UniProt P36888). Put plainly: FLT3 kinase inhibitors, dose response, biochemical, Z'-LYTE, FRET, protease-coupled, direct format (AID 1671268). The conditions noted are these: recombinant FLT3, Z'-LYTE FRET peptide phosphorylation.

In PubChem BioAssay AID1671268 one finds IC50 data, which are given here for one molecule.

SMILES strings stand for the structures.

Chain of Receptor-type tyrosine-protein kinase FLT3 (Homo sapiens) (P36888 whole entry, looked up): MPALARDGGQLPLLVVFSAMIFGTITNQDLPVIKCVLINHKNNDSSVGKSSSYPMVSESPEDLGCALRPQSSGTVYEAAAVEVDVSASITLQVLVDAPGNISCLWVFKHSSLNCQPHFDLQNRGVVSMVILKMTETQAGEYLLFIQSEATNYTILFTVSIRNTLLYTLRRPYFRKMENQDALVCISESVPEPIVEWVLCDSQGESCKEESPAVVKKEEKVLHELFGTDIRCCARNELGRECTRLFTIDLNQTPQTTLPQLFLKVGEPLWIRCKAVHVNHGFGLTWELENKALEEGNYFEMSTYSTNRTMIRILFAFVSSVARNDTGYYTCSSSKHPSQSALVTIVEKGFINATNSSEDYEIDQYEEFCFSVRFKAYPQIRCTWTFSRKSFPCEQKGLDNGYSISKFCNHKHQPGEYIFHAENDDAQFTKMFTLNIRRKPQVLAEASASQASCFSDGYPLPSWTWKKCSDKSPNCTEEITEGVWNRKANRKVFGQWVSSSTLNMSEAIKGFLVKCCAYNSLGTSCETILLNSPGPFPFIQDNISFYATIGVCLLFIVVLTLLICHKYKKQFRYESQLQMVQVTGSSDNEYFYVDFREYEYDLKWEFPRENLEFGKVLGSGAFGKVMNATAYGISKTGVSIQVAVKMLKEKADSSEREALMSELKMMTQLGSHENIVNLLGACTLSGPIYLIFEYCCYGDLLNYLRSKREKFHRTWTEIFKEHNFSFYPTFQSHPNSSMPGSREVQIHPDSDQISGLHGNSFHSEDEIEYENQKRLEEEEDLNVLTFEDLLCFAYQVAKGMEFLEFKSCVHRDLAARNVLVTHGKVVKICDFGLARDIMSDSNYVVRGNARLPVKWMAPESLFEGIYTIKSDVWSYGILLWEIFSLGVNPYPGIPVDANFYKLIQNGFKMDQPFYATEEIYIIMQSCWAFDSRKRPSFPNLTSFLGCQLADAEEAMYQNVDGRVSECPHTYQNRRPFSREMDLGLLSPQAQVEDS

As for `COc1cc2ncnc(Nc3cccc(Cl)c3)c2cc1OC`, the IC50 was 2940 nM.

What is called IC50 is the concentration that gives 50% inhibition.
